In one test the test system is pERK1/2(THR202/TYR204) level in SW620 cell line (KRAS G12V). Nature of the test: KRAS G12V pERK assay (HTRF) in SW620 cell line. It counts as cell-based. The settings on record: Homo sapiens, SW-620, 2 h, SW620 cells, 2 hrs compound treatment. As to the method: SW620 cell line was used in this study. Cells were maintained in RPMI 1640 supplemented with 10% fetal bovine serum (Thermo Fisher), 50 units/mL penicillin and streptomycin (Thermo Fisher) and kept at 37° C. in a humidified atmosphere of 5% CO2 in air. Cells were reinstated from frozen stocks that were laid down within 30 passages from the original cells purchased. 40000 cells per well were seeded into a 96-well plate and incubated overnight. Cells were treated with a 10-point dilution series. The final compound concentration is from 0 to 10 μM. After 2 hrs compound treatment, cells were lysed, and the pERK1/2(THR202/TYR204) level in the cell lysates was detected by HTRF kit (Cisbio). In brief, a total of 16 μL of cell lysate from each well of a 96-well plate was transferred to a 384-well white assay plate. Lysate from each well was incubated with 2 μL of Eu3+-cryptate (donor) labeled anti-phospho-ERK1/2 and 2 μL of D2 (acceptor) labeled anti-phospho-ERK1/2 antibodies (Cisbio) overnight in dark at room temperature. When donor and acceptor are in close proximity, excitation of the donor with laser triggers a Fluorescence Resonance Energy Transfer (FRET) towards the acceptor, which in turn fluoresces at 655 nm wavelength. FRET signals were measured using a PHERAstar FSX reader (BMG Labtech). IC50 determination was performed by fitting the curve of percent inhibition versus the log of the inhibitor concentration using Dotmatics.
For the compound `N#Cc1c(N)sc2c(F)ccc(-c3cc4c5c(nc(OC[C@@]67CCCN6C[C@H](F)C7)nc5c3F)N3CCC[C@H]3CO4)c12` [Example 1, 2-amino-7-fluoro-4-((S)-4-fluoro-2-(((2R,7aS)-2-fluorotetrahydro-1H-pyrrolizin-7a(5H)-yl)methoxy)-8a,9,10,11-tetrahydro-8H-pyrrolo[2′,1′:3,4][1,4]oxazepino[5,6,7-de]quinazolin-5-yl)benzo[b]thiophene-3-carbonitrile], the half-inhibitory concentration (IC50) was determined as 290 nM.
Same read-out and setting: the same measure for `C#Cc1c(F)ccc2cc(O)cc(-c3cc4c5c(nc(OC[C@@]67CCCN6C[C@H](F)C7)nc5c3F)N3CC(F)(F)C[C@H]3CO4)c12` [Example 4, 5-ethynyl-6-fluoro-4-((S)-2,2,8-trifluoro-6-(((2R,7aS)-2-fluorotetrahydro-1H-pyrrolizin-7a(5H)-yl)methoxy)-2,3,12,12a-tetrahydro-1H-pyrrolo[2′,1′:3,4][1,4]oxazepino[5,6,7-de]quinazolin-9-yl)naphthalen-2-ol]: 658 nM; for `N#Cc1c(N)sc2c(F)ccc(-c3cc4c5c(nc(OC[C@@]67CCCN6C[C@H](F)C7)nc5c3F)N3CCC[C@@H]3CCO4)c12` [Example 5, 2-amino-7-fluoro-4-((R)-8-fluoro-6-(((2R,7aS)-2-fluorotetrahydro-1H-pyrrolizin-7a(5H)-yl)methoxy)-1,2,3,12,13,13a-hexahydropyrrolo[1′,2′:5,6][1,5]oxazocino[4,3,2-de]quinazolin-9-yl)benzo[b]thiophene-3-carbonitrile]: 668 nM; for `C#Cc1c(F)ccc2cc(O)cc(-c3cc4c5c(nc(OC[C@@]67CCCN6C[C@H](F)C7)nc5c3F)N3CCCCC3CCO4)c12` (stereo partly drawn) [Example 6, 5-ethynyl-6-fluoro-4-(1-fluoro-13-(((2R,7aS)-2-fluorotetrahydro-1H-pyrrolizin-7a(5H)-yl)methoxy)-6,6a,7,8,9,10-hexahydro-5H-pyrido[1′,2′:5,6][1,5]oxazocino[4,3,2-de]quinazolin-2-yl)naphthalen-2-ol]: 271 nM.
`N#Cc1c(N)sc2c(F)ccc(-c3c(Cl)c4c5c(nc(OC[C@@]67CCCN6C[C@H](F)C7)nc5c3F)N3CCC[C@@H]3CCO4)c12` [Example 7, 2-amino-4-((13aR)-10-chloro-8-fluoro-6-(((2R,7aS)-2-fluorotetrahydro-1H-pyrrolizin-7a (5H)-yl)methoxy)-1,2,3,12,13,13a-hexahydropyrrolo[1′,2′:5,6][1,5]oxazocino[4,3,2-de]quinazolin-9-yl)-7-fluorobenzo[b]thiophene-3-carbonitrile]: 49 nM corresponded to half-maximal inhibition (IC50).
Same read-out and setting: the same measure for `Nc1cc(Cl)c(C(F)(F)F)c(-c2nc3c4c(nc(OC[C@@]56CCCN5C[C@H](F)C6)nc4c2F)N2CCC[C@H]2CO3)c1` [Example 9, 3-chloro-5-((S)-7-fluoro-5-(((2R,7aS)-2-fluorotetrahydro-1H-pyrrolizin-7a(5H)-yl)methoxy)-2,3,11,11a-tetrahydro-1H-10-oxa-3a,4,6,9-tetraazanaphtho[1,8-e]azulen-8-yl)-4-(trifluoromethyl)aniline]: 890 nM; for `C#Cc1c(F)ccc2cc(O)cc(-c3nc4c5c(nc(OC[C@@]67CCCN6C[C@H](F)C7)nc5c3F)N3CCC[C@H]3CO4)c12` [Example 10, 5-ethynyl-6-fluoro-4-((S)-7-fluoro-5-(((2R,7aS)-2-fluorotetrahydro-1H-pyrrolizin-7a(5H)-yl)methoxy)-2,3,11,11a-tetrahydro-1H-10-oxa-3a,4,6,9-tetraazanaphtho[1,8-ef]azulen-8-yl)naphthalen-2-ol]: 43 nM.
In turn, `Nc1cc(Cl)c(C(F)(F)F)c(-c2nc3c4c(nc(OC[C@@]56CCCN5C[C@H](F)C6)nc4c2F)N2CCC[C@@H]2CCO3)c1` [Example 11, 3-chloro-5-((R)-7-fluoro-5-(((2R,7aS)-2-fluorotetrahydro-1H-pyrrolizin-7a(5H)-yl)methoxy)-1,2,3,11,12,12a-hexahydro-10-oxa-3a,4,6,9-tetraazacyclopenta[4,5]cycloocta[1,2,3-de]naphthalen-8-yl)-4-(trifluoromethyl)aniline] yielded an IC50 of 66 nM. Against the preceding compound, the IC50 is about 1.5-fold higher.
The compound `Cc1cc(N)cc(-c2nc3c4c(nc(OC[C@@]56CCCN5C[C@H](F)C6)nc4c2F)N2CCC[C@@H]2CCO3)c1C(F)(F)F` [Example 12, 3-((R)-7-fluoro-5-(((2R,7aS)-2-fluorotetrahydro-1H-pyrrolizin-7a(5H)-yl)methoxy)-1,2,3,11,12,12a-hexahydro-10-oxa-3a,4,6,9-tetraazacyclopenta[4,5]cycloocta[1,2,3-de]naphthalen-8-yl)-5-methyl-4-(trifluoromethyl)aniline] came in with a half-maximal inhibitory concentration (IC50) of 56 nM. The IC50 values of the last two compounds are within 1.5-fold of each other.
Same read-out and setting: the result for `Nc1cc(Cl)c(C(F)(F)F)c(-c2nc3c4c(nc(OC[C@@]56CCCN5C[C@H](F)C6)nc4c2F)N2CCC[C@@H]2CO3)c1` [Example 13, 3-chloro-5-((R)-7-fluoro-5-(((2R,7aS)-2-fluorotetrahydro-1H-pyrrolizin-7a(5H)-yl)methoxy)-2,3,11,11a-tetrahydro-1H-10-oxa-3a,4,6,9-tetraazanaphtho[1,8-ef]azulen-8-yl)-4-(trifluoromethyl)aniline] reads 648 nM; that for `Nc1cc(Cl)c(C(F)(F)F)c(-c2nc3c4c(nc(OC[C@@]56CCCN5C[C@H](F)C6)nc4c2F)N2CCCC[C@H]2CO3)c1` [Example 15, 3-chloro-5-((S)-1-fluoro-11-(((2R,7aS)-2-fluorotetrahydro-1H-pyrrolizin-7a(5H)-yl)methoxy)-5,5a,6,7,8,9-hexahydro-4-oxa-3,9a,10,12-tetraazabenzo[4,5]cyclohepta[1,2,3-de]naphthalen-2-yl)-4-(trifluoromethyl)aniline], 187 nM; that for `Nc1cc(Cl)c(C(F)(F)F)c(-c2nc3c4c(nc(OC[C@@]56CCCN5C[C@H](F)C6)nc4c2F)N2CCC(F)C2CO3)c1` (stereo partly drawn) [Example 17, 3-chloro-5-(1,7-difluoro-5-(((2R,7aS)-2-fluorotetrahydro-1H-pyrrolizin-7a(5H)-yl)methoxy)-2,3,11,11a-tetrahydro-1H-10-oxa-3a,4,6,9-tetraazanaphtho[1,8-ef]azulen-8-yl)-4-(trifluoromethyl)aniline], 509 nM.
`C#Cc1c(F)ccc2cc(O)cc(-c3nc4c5c(nc(OC[C@@]67CCCN6C[C@H](F)C7)nc5c3F)N3C[C@H](F)C[C@H]3CO4)c12` [Example 19, 4-((2R,11aS)-2,7-difluoro-5-(((2R,7aS)-2-fluorotetrahydro-1H-pyrrolizin-7a(5H)-yl)methoxy)-2,3,11,11a-tetrahydro-1H-10-oxa-3a,4,6,9-tetraazanaphtho[1,8-ef]azulen-8-yl)-5-ethynyl-6-fluoronaphthalen-2-ol] had an IC50 of 112 nM.

Still in this test, the particulars now being: SW620 cells, 2 hrs compound treatment.
As for “3-chloro-5-(1-fluoro-12-(((2R,7aS)-2-fluorotetrahydro-1H-pyrrolizin-7a(5H)-yl)methoxy)-6,6a,7,8,9,10-hexahydro-5H-4-oxa-3,10a,11,13-tetraazabenzo[4,5]cycloocta[1,2,3-de]naphthalen-2-yl)-4-(trifluoromethyl)aniline [Example 8]”, half-maximal inhibition (IC50) required 290 nM.
Regarding `C#Cc1c(F)ccc2cc(O)cc(-c3nc4c5c(nc(OCC67CCCN6CC(F)C7)nc5c3F)N3CCC3CO4)c12` (single isomer, unassigned) [Example 18], the half-inhibitory concentration (IC50) came out at 326 nM.
Consider `C#Cc1c(F)ccc2cc(O)cc(-c3nc4c5c(nc(OCC67CCCN6CC(F)C7)nc5c3F)N3CCC3CO4)c12` (single isomer, unassigned) [Example 20], for which the IC50 came out at 40 nM.

(Values after patent US20250250287A1, “HETEROCYCLIC COMPOUNDS, COMPOSITIONS THEREOF, AND METHODS OF TREATMENT THEREWITH” (BeiGene Switzerland GmbH, priority 2022, published 2025).)
